Patent US10206394B2, “Herbicidal compounds” (Syngenta Participations AG, priority 2014, dated 2019)
Where two headings read alike, the source gives them in different places.

Columns and labels:
Assay in all cases: Glasshouse assay for herbicidal activity (pre- and post-emergence), percentage phytotoxicity
Assay type in all cases: in vivo
Lolium perenne (LOLPE) = settings: Lolium perenne
Outline: (§1)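 Pot-grown plants treated one day after sowing (pre-emergence) or at about 12 days (post-emergence); glasshouse at 24/18° C (warm) or 20/16° C (cool species) day/night, 16 h light, 65% humidity. Visual % phytotoxicity (0 = none, 100 = total damage) scored at 15 DAA post or 20 DAA pre.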

Avena fatua (AVEFA) = settings: Avena fatua
Outline: as §1

[1] = test system: Echinochloa crus-galli (ECHCG); settings: Echinochloa crus-galli
Outline: as §1

[2] = test system: Alopecurus myosuroides (ALOMY); settings: Alopecurus myosuroides
Outline: as §1

[3] = post-emergence, 360 h, 250 g/ha, post-emergence, 15 DAA, visual assessment (100%=total damage, 0%=no damage), read-out: Post-emergence herbicidal activity (percentage phytotoxicity) LOLPE POST
[4] = pre-emergence, 480 h, 250 g/ha, pre-emergence, 20 DAA, visual assessment (100%=total damage, 0%=no damage), read-out: Pre-emergence herbicidal activity (percentage phytotoxicity) LOLPE PRE
[5] = post-emergence, 360 h, 250 g/ha, post-emergence, 15 DAA, visual assessment (100%=total damage, 0%=no damage), read-out: Post-emergence herbicidal activity (percentage phytotoxicity) AVEFA POST
[6] = pre-emergence, 480 h, 250 g/ha, pre-emergence, 20 DAA, visual assessment (100%=total damage, 0%=no damage), read-out: Pre-emergence herbicidal activity (percentage phytotoxicity) AVEFA PRE
[7] = post-emergence, 360 h, 250 g/ha, post-emergence, 15 DAA, visual assessment (100%=total damage, 0%=no damage), read-out: Post-emergence herbicidal activity (percentage phytotoxicity) ECHCG POST
[8] = pre-emergence, 480 h, 250 g/ha, pre-emergence, 20 DAA, visual assessment (100%=total damage, 0%=no damage), read-out: Pre-emergence herbicidal activity (percentage phytotoxicity) ECHCG PRE
[9] = post-emergence, 360 h, 250 g/ha, post-emergence, 15 DAA, visual assessment (100%=total damage, 0%=no damage), read-out: Post-emergence herbicidal activity (percentage phytotoxicity) ALOMY POST
[10] = pre-emergence, 480 h, 250 g/ha, pre-emergence, 20 DAA, visual assessment (100%=total damage, 0%=no damage), read-out: Pre-emergence herbicidal activity (percentage phytotoxicity) ALOMY PRE
[11] = post-emergence, 360 h, Rate 250 g/ha, post-emergence, assessed visually 15 DAA, 100%=total damage, 0%=no damage, read-out: Post-emergence herbicidal activity (percentage phytotoxicity) LOLPE POST
[12] = pre-emergence, 480 h, Rate 250 g/ha, pre-emergence, assessed visually 20 DAA, 100%=total damage, 0%=no damage, read-out: Pre-emergence herbicidal activity (percentage phytotoxicity) LOLPE PRE
[13] = post-emergence, 360 h, Rate 250 g/ha, post-emergence, assessed visually 15 DAA, 100%=total damage, 0%=no damage, read-out: Post-emergence herbicidal activity (percentage phytotoxicity) AVEFA POST
[14] = pre-emergence, 480 h, Rate 250 g/ha, pre-emergence, assessed visually 20 DAA, 100%=total damage, 0%=no damage, read-out: Pre-emergence herbicidal activity (percentage phytotoxicity) AVEFA PRE
[15] = post-emergence, 360 h, Rate 250 g/ha, post-emergence, assessed visually 15 DAA, 100%=total damage, 0%=no damage, read-out: Post-emergence herbicidal activity (percentage phytotoxicity) ECHCG POST
[16] = pre-emergence, 480 h, Rate 250 g/ha, pre-emergence, assessed visually 20 DAA, 100%=total damage, 0%=no damage, read-out: Pre-emergence herbicidal activity (percentage phytotoxicity) ECHCG PRE
[17] = post-emergence, 360 h, Rate 250 g/ha, post-emergence, assessed visually 15 DAA, 100%=total damage, 0%=no damage, read-out: Post-emergence herbicidal activity (percentage phytotoxicity) ALOMY POST
[18] = pre-emergence, 480 h, Rate 250 g/ha, pre-emergence, assessed visually 20 DAA, 100%=total damage, 0%=no damage, read-out: Pre-emergence herbicidal activity (percentage phytotoxicity) ALOMY PRE

C/C=C/c1cc(C)c(C2C(=O)CC(CC(=O)NC(C)(C)C)C2=O)c(CC)c1 (stereo not drawn) [Compound B136]
pest or weed control at 16 g/ha (Lolium perenne (LOLPE); post-emergence, 360 h, post-emergence, 15 DAA, read-out: Post-emergence herbicidal activity (percentage phytotoxicity) LOLPE POST): 100% | pest or weed control at 16 g/ha (Lolium perenne (LOLPE); pre-emergence, 480 h, pre-emergence, 20 DAA, read-out: Pre-emergence herbicidal activity (percentage phytotoxicity) LOLPE PRE): 90% | pest or weed control at 16 g/ha (Avena fatua (AVEFA); post-emergence, 360 h, post-emergence, 15 DAA, read-out: Post-emergence herbicidal activity (percentage phytotoxicity) AVEFA POST): 100% | pest or weed control at 16 g/ha (Avena fatua (AVEFA); pre-emergence, 480 h, pre-emergence, 20 DAA, read-out: Pre-emergence herbicidal activity (percentage phytotoxicity) AVEFA PRE): 100% | pest or weed control at 16 g/ha ([1]; post-emergence, 360 h, post-emergence, 15 DAA, read-out: Post-emergence herbicidal activity (percentage phytotoxicity) ECHCG POST): 90% | pest or weed control at 16 g/ha ([1]; pre-emergence, 480 h, pre-emergence, 20 DAA, read-out: Pre-emergence herbicidal activity (percentage phytotoxicity) ECHCG PRE): 100% | pest or weed control at 16 g/ha ([2]; post-emergence, 360 h, post-emergence, 15 DAA, read-out: Post-emergence herbicidal activity (percentage phytotoxicity) ALOMY POST): 60% | pest or weed control at 16 g/ha ([2]; pre-emergence, 480 h, pre-emergence, 20 DAA, read-out: Pre-emergence herbicidal activity (percentage phytotoxicity) ALOMY PRE): 90%

Cc1cc(OCC(F)(F)F)cc(C)c1C1C(=O)CC(CC(=O)N2CCOCC2)C1=O (stereo not drawn) [Compound B146]
pest or weed control at 250 g/ha (Lolium perenne (LOLPE); [3]): 90% | pest or weed control at 250 g/ha (Lolium perenne (LOLPE); [4]): 90% | pest or weed control at 250 g/ha (Avena fatua (AVEFA); [5]): 90% | pest or weed control at 250 g/ha (Avena fatua (AVEFA); [6]): 50% | pest or weed control at 250 g/ha [1, 7]: 100% | pest or weed control at 250 g/ha [1, 8]: 100% | pest or weed control at 250 g/ha [2, 9]: 80% | pest or weed control at 250 g/ha [2, 10]: 90%

CCc1cc(C)cc(C)c1C1C(=O)CC(CC(=O)NCc2ccc(OC)cc2)C1=O (stereo not drawn) [Compound B253]
pest or weed control at 250 g/ha (Lolium perenne (LOLPE); post-emergence, 360 h, POST-emergence, rate 250 g/ha, visual score 15 DAA (100%=total damage, 0%=no damage), read-out: Post-emergence herbicidal activity (percentage phytotoxicity) LOLPE POST): 100% | pest or weed control at 250 g/ha (Lolium perenne (LOLPE); pre-emergence, 480 h, PRE-emergence, rate 250 g/ha, visual score 20 DAA (100%=total damage, 0%=no damage), read-out: Pre-emergence herbicidal activity (percentage phytotoxicity) LOLPE PRE): 90% | pest or weed control at 250 g/ha (Avena fatua (AVEFA); post-emergence, 360 h, POST-emergence, rate 250 g/ha, visual score 15 DAA (100%=total damage, 0%=no damage), read-out: Post-emergence herbicidal activity (percentage phytotoxicity) AVEFA POST): 100% | pest or weed control at 250 g/ha (Avena fatua (AVEFA); pre-emergence, 480 h, PRE-emergence, rate 250 g/ha, visual score 20 DAA (100%=total damage, 0%=no damage), read-out: Pre-emergence herbicidal activity (percentage phytotoxicity) AVEFA PRE): 80% | pest or weed control at 250 g/ha ([1]; post-emergence, 360 h, POST-emergence, rate 250 g/ha, visual score 15 DAA (100%=total damage, 0%=no damage), read-out: Post-emergence herbicidal activity (percentage phytotoxicity) ECHCG POST): 100% | pest or weed control at 250 g/ha ([1]; pre-emergence, 480 h, PRE-emergence, rate 250 g/ha, visual score 20 DAA (100%=total damage, 0%=no damage), read-out: Pre-emergence herbicidal activity (percentage phytotoxicity) ECHCG PRE): 90% | pest or weed control at 250 g/ha ([2]; post-emergence, 360 h, POST-emergence, rate 250 g/ha, visual score 15 DAA (100%=total damage, 0%=no damage), read-out: Post-emergence herbicidal activity (percentage phytotoxicity) ALOMY POST): 100% | pest or weed control at 250 g/ha ([2]; pre-emergence, 480 h, PRE-emergence, rate 250 g/ha, visual score 20 DAA (100%=total damage, 0%=no damage), read-out: Pre-emergence herbicidal activity (percentage phytotoxicity) ALOMY PRE): 100%

Cc1cc(C)c(C2C(=O)CC(CC(=O)NCc3ncc(C)s3)C2=O)c(C)c1 (stereo not drawn) [Compound A105]
pest or weed control at 250 g/ha (Lolium perenne (LOLPE); [11]): 70% | pest or weed control at 250 g/ha (Lolium perenne (LOLPE); [12]): 70% | pest or weed control at 250 g/ha (Avena fatua (AVEFA); [13]): 0% | pest or weed control at 250 g/ha (Avena fatua (AVEFA); [14]): 20% | pest or weed control at 250 g/ha [1, 15]: 60% | pest or weed control at 250 g/ha [1, 16]: 70% | pest or weed control at 250 g/ha [2, 17]: 80% | pest or weed control at 250 g/ha [2, 18]: 80%

Cc1cc(-c2ncc(Cl)cc2F)cc(C)c1C1C(=O)CC(CC(=O)NCc2ccc(Cl)nc2)C1=O (stereo not drawn) [Compound A116]
pest or weed control at 250 g/ha (Lolium perenne (LOLPE); [11]): 100% | pest or weed control at 250 g/ha (Lolium perenne (LOLPE); [12]): 80% | pest or weed control at 250 g/ha (Avena fatua (AVEFA); [13]): 100% | pest or weed control at 250 g/ha (Avena fatua (AVEFA); [14]): 90% | pest or weed control at 250 g/ha [1, 15]: 100% | pest or weed control at 250 g/ha [1, 16]: 100% | pest or weed control at 250 g/ha [2, 17]: 90% | pest or weed control at 250 g/ha [2, 18]: 80%

Cc1cc(C)c(C2C(=O)CC(CC(=O)NCCF)C2=O)c(C)c1 (stereo not drawn) [Compound B61]
pest or weed control at 250 g/ha (Lolium perenne (LOLPE); [3]): 90% | pest or weed control at 250 g/ha (Lolium perenne (LOLPE); [4]): 90% | pest or weed control at 250 g/ha (Avena fatua (AVEFA); [5]): 90% | pest or weed control at 250 g/ha (Avena fatua (AVEFA); [6]): 70% | pest or weed control at 250 g/ha [1, 7]: 90% | pest or weed control at 250 g/ha [1, 8]: 90% | pest or weed control at 250 g/ha [2, 9]: 80% | pest or weed control at 250 g/ha [2, 10]: 70%
